Assay results from US20260198499A1, “PLANT STOMATAL OPENING REGULATOR” (priority 2022, published 2026).
Read-outs that look alike come from different tables or passages of the source.

Key:
[1] = system: stomatal aperture of Commelina benghalensis leaf disks; experiment: Stomatal opening regulatory action measurement test 1 (IC50 of stomatal aperture, leaf disks); assay type: cell-based; conditions: read-out: IC50 (50% inhibitory concentration of stomatal aperture)
Description: (§1) Part of the stem of Commelina benghalensis was inserted into a planter filled with mixed soil of vermiculite and peat moss, and grown indoors with natural light (room temperature: 25±3° C.) for 2 to 4 weeks. The planter was placed in a dark room and subjected to dark treatment overnight. After the dark treatment, leaf disks with a diameter of 4 mm were cut from fully expanded leaves using a hole punch (Biospy Punch, Kai Medical).
Each test solution was dispensed into five wells of a 96-well plate at 50 μl/well, and the leaf disks were immersed therein, followed by incubation under light irradiation (50 μmol m^−2s^−1 blue light) for 3 hours. After incubation, stomatal closure was evaluated under observation images (600×) using a stereofluorescence microscope (Leica M205FA). The minor diameter of about 20 stomata (hereinafter referred to as “stomatal aperture”) was measured for each leaf disk.

[2] = system: stomatal opening of leaf disks; experiment: Stomatal opening regulatory action measurement test 2 (light- and fusicoccin-induced stomatal opening); assay type: cell-based, Commelina benghalensis; conditions: compound 1 100 μM, FIG. 1
Description: as §1
[…] After incubation, stomatal closure was evaluated under observation images (600×) using a stereofluorescence microscope (Leica M205FA). The minor diameter of about 20 stomata (hereinafter referred to as “stomatal aperture”) was measured for each leaf disk. Based on the measured values of stomatal aperture at each concentration for each test compound, the 50% inhibitory concentration (IC50) of stomatal aperture was calculated.
Compound 1 (BITC: benzyl isothiocyanate) (final concentration in the test solution: 100 μM) and abscisic acid (final concentration in the test solution: 20 µM) were used as test compounds. A test solution was also prepared by adding fusicoccin (final concentration: 10 μM) in addition to the test compound. […] The mean and standard deviation (SD) were calculated based on the measured values.

[3] = system: plasma membrane proton pump (H+-ATPase) phosphorylation in guard cells; experiment: Immunohistochemical measurement of blue light- and fusicoccin-induced phosphorylation of the plasma membrane proton pump in guard cells; assay type: cell-based, Arabidopsis thaliana; conditions: compound 1 100 μM, compound 4 20 µM, compound 5 20 μM, FIG. 2; for inhibitory effect on blue light-induced phosphorylation of the plasma membrane proton pump: Arabidopsis guard cells; for inhibitory effect on fusicoccin-induced phosphorylation of the plasma membrane proton pump: fusicoccin 10 μM
Description: Blue light- and fusicoccin-induced phosphorylation of the plasma membrane proton pump in guard cells from the epidermis of Arabidopsis thaliana was measured immunohistochemically as previously reported (Hayashi et al. (2011) Immunohistochemical detection of blue light-induced phosphorylation of the plasma membrane H^+-ATPase in stomatal guard cells. Plant Cell Physiol. 52:1238-1248). The test compounds used were compound 1 (BITC), compound 4 (m-Bis-BITC), and compound 5 (Tris-BITC). The concentration of compound 1 during action was 100 μM, the concentration of compound 4 during action was 20 µM, the concentration of compound 5 during action was 20 μM, and the concentration of fusicoccin during action was 10 μM.

[4] = system: ABA-responsive kinase substrate (AKS); experiment: Immunoblot analysis of phosphorylation of ABA-responsive kinase substrate (AKS) in guard cells; assay type: cell-based; conditions: compound 1 100 μM; Vicia faba guard cells; FIG. 3
Description: Abscisic acid (ABA)-induced phosphorylation of ABA-responsive kinase substrate (AKS) in guard cells from the epidermis of broad bean (Vicia faba) was measured by immunoblot analysis as previously reported (Takahashi et al. (2007) Protein Phosphorylation and Binding of a 14-3-3 Protein in Vicia Guard Cells in Response to ABA. Plant and Cell Physiology. 48:1182-1191). The test compounds used were compound 1 (BITC) and abscisic acid. The concentration of compound 1 during action was 100 μM, and the concentration of abscisic acid during action was 20 μM.

[5] = system: ABA-related responses in Arabidopsis thaliana; experiment: ABA-related responses (seed germination, ABA-responsive genes RAB18 and RD29B); assay type: in vivo
[6] = system: stomatal opening in intact leaves of chrysanthemums; experiment: Stomatal opening regulatory action measurement test 3 (intact chrysanthemum leaves); assay type: in vivo; conditions: for inhibitory effect on stomatal opening in intact leaves: chrysanthemum leaves immersed in test solution, white light 3 hours, FIGS. 4 and 5
Description: (§2) A bouquet of chrysanthemums (Chrysanthemum) was purchased and cultured in a water bottle at 24° C. with a photoperiod of 16 h white light (100 μmol m^−2s^−1)/8 h darkness for 2 days. After the dark period ended, the leaves were immersed in a test solution (0.033% Makupika (spreader, Isk Biosciences K. K.)) containing the test compound (compound 1 (BITC), compound 4 (m-Bis-BITC), or abscisic acid (ABA)) and incubated under white light (100 μmol m^−2s^−1) for 3 hours or incubated with a photoperiod of 16 h light/16 h darkness (light→dark→light) for 48 hours. After incubation, the stomatal aperture was measured in the same manner as in Test Example 1.

[7] = system: chrysanthemums (Chrysanthemum); experiment: Drought tolerance test 1 (dehydrated chrysanthemum bouquet); assay type: in vivo; conditions: 21° C., 90 minutes, relative humidity 35 to 40%, FIG. 6
Description: as §2
After incubation for 3 hours in Test Example 5, the bouquet was dehydrated and incubated at 21° C. for 90 minutes under 10 μmol m^−2s^−1 white light at a relative humidity of 35 to 40%.

[8] = system: Chinese cabbage (Brassica rapa); experiment: Drought tolerance test 2 (sprayed Chinese cabbage, water depleted); assay type: in vivo; conditions: Chinese cabbage sprayed with 50 μM, 24 hours, 25° C., relative humidity 40 to 50%, FIG. 7
Description: A test solution (0.033% Makupika (spreader, Isk Biosciences K.K.)) containing compound 4 (m-Bis-BITC) was sprayed onto 4- to 5-week-old Chinese cabbage (Brassica rapa) growing in 110 ml of soil. The concentration of compound 4 in the test solution was 50 μM. Then, the water was depleted, and the plants were cultured for 24 hours in a greenhouse at 25° C. at a relative humidity of 40 to 50% on a sunny day.

[9] = Commelina benghalensis leaf disks, 3 hours under 50 μmol m−2s−1 blue light

## S=C=NC[C@H]1CC[C@H](CN=C=S)CC1 [Compound 27, trans-1,4-bis(isothiocyanatomethyl)cyclohexane]
[1]; Commelina benghalensis, 3 h
  IC50: 11.4 µM

## S=C=NCc1ccccc1 [Compound 1, benzyl isothiocyanate]
[1]; [9]
  IC50: 29.1 µM
[2]; abscisic acid 20 µM, 3 hours red and blue light
  inhibitory effect on stomatal opening compared with abscisic acid: more potent inhibitory effect on stomatal opening than abscisic acid
[2]; fusicoccin 10 μM, 3 hours
  inhibitory effect on stomatal opening induced by fusicoccin: exhibited an inhibitory effect on stomatal opening induced by fusicoccin
[3]
  inhibitory effect on blue light-induced phosphorylation of the plasma membrane proton pump: inhibitory effects
  inhibitory effect on fusicoccin-induced phosphorylation of the plasma membrane proton pump: inhibitory effects
[4]
  induction of phosphorylation of the ABA-responsive kinase substrate: did not induce phosphorylation
[5]
  effect on ABA-related responses, including inhibition of seed germination and induction of ABA-responsive genes (RAB18 and RD29B): no effect
[6]
  inhibitory effect on stomatal opening in intact leaves: inhibitory effect on stomatal opening even in intact leaves
[7]
  drought tolerance and wilting: could improve drought tolerance and suppress wilting

## S=C=NCc1cccs1 [Compound 2]
[1]; Commelina benghalensis, 3 h
  IC50: 20.6 µM

## S=C=NCc1cccc(CN=C=S)c1 [Compound 4]
[1]; [9]
  IC50: 1.7 µM
[3]
  inhibitory effect on blue light-induced phosphorylation of the plasma membrane proton pump: inhibitory effects
  inhibitory effect on fusicoccin-induced phosphorylation of the plasma membrane proton pump: inhibitory effects
[6]
  inhibitory effect on stomatal opening in intact leaves: inhibitory effect on stomatal opening even in intact leaves
[6]; chrysanthemum leaves, 48 hours incubation, m-Bis-BITC 50 µM, FIG. 5
  persistence of the stomatal opening inhibitory effect: excellent in the persistence
[7]
  drought tolerance and wilting: could improve drought tolerance and suppress wilting
[8]
  drought tolerance and wilting: could improve drought tolerance and suppress wilting over a long period of time

## S=C=NCc1cc(CN=C=S)cc(CN=C=S)c1 [Compound 5, 1,3,5-tris(isothiocyanatomethyl)benzene]
[1]; Commelina benghalensis, 3 h
  IC50: 0.44 µM
[3]
  inhibitory effect on blue light-induced phosphorylation of the plasma membrane proton pump: inhibitory effects
  inhibitory effect on fusicoccin-induced phosphorylation of the plasma membrane proton pump: inhibitory effects
